Experimental data from paper PMC10676574, “In-silico and in-vitro screening of Asiatic acid and Asiaticoside A against Cathepsin S enzyme” (BMC Pharmacology & Toxicology, 2023).
pIC50: −log10 of the molar value. Where two headings read alike, the source gives them in different places.

Molecular target: T1, Cathepsin S (Homo sapiens, UniProt P25774)
T1 construct: gene CTSS
Test: fluorometric cathepsin S inhibitor assay kit (ab185437), Z-VVR-AFC substrate, kinetic mode
Assay type: biochemical

T1 sequence (P25774 115-331): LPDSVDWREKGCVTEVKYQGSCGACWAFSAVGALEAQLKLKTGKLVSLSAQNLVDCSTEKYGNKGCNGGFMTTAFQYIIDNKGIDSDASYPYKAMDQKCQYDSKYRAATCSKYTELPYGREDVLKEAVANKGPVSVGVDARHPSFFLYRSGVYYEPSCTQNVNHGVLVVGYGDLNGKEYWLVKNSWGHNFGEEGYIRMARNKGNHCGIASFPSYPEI

## C[C@H]1[C@H](C)CC[C@]2(C(=O)O)CC[C@]3(C)C(=CC[C@@H]4[C@@]5(C)C[C@@H](O)[C@H](O)[C@@](C)(CO)[C@@H]5CC[C@]43C)[C@H]12 [asiatic acid]
  pIC50: 4.83

## asiaticoside A
read-out: IC50
  pIC50: 6.18
